Measurements: ChEMBL document CHEMBL5727820, “Substituted carbonucleoside derivatives useful as anticancer agents” (2020)
“And” between values parts separate entries of the source, which are not always exact repeats. Identical values can stand only once.

test: Biochemical Assay: Compounds were solubilized in DMSO and serially diluted, using 3-fold dilutions, into 100% DMSO at a concentration 50-fold greater than the desired assay concentration. Following dilution, 1 ul was added to an empty 96-well microtiter plate. PRMT5/MEP50 protein complex was combined with H4(1-21) peptide ([…]) in PRMT5 assay buffer (50 mM Tris pH 8.5, 50 mM NaCl, 5 mM MgCl2, 1 mM EDTA, 1 mM TCEP) and 44 ul was added to the microtiter plate containing compound. S-Adenosyl-L-methionine (SAM) was prepared by combining 3H labelled SAM with unlabelled SAM in PRMT5 assay buffer such that the final SAM concentration was 10 uM and the specific activity was 0.2 uCi/ul. The reaction was initiated by adding 5 ul of SAM stock to the microtiter plate. The final reaction conditions were 10 nM PRMT5/MEP50 complex, 200 nM peptide and 1 uM SAM. Following a 25 minute incubation at room temperature, the reaction was stopped with the addition of 100 uL of 20% TCA. The 3H-peptide product was captured using a 96-well filter plate (MSIPN4B, Millipore) and washed 5 times with PBS buffer. Scintillation fluid (100 ul) was added to the dried filter plate and counted in a liquid scintillation counter. IC50 values were determined by fitting the data to the standard 4-parameter dose response equation using Pfizer proprietary software.

Structure (SMILES) | IC50
Cc1nc(N)nc2c1ccn2[C@@H]1C[C@H]([C@@H](O)c2ccc(F)c(F)c2)[C@@H](O)[C@H]1O | 5 nM
Cc1nc(N)c2c(C)cn([C@@H]3C[C@H](Oc4cc(F)c(F)c5c4CNCC5)[C@@H](O)[C@H]3O)c2n1 | 1 nM
O[C@@H]1[C@H](O)[C@H]([C@H](O)c2ccc(F)c(F)c2)C[C@H]1Nc1ncnc2[nH]ccc12 | 5770 nM
Cc1cc(N[C@H]2C[C@@H](Oc3ccc(F)cc3C#N)[C@H](O)[C@@H]2O)ncn1 | > 200000 nM
N#Cc1cccc2c(N[C@H]3C[C@H](C(O)c4ccc(F)c(F)c4)[C@@H](O)[C@H]3O)ncnc12 (some centres not stated) | > 200000 nM
Cc1ncnc2c1ccn2[C@@H]1C[C@H](Oc2ccccc2CN)[C@@H](O)[C@H]1O | 1060 nM
Cc1ncnc2c1ccn2[C@@H]1C[C@H]([C@@H](O)c2ccc(F)cc2)[C@@H](O)[C@H]1O | 289 nM
Cc1nccc(N[C@@H]2C[C@H]([C@H](O)c3ccc(F)c(F)c3)[C@@H](O)[C@H]2O)n1 | 150 nM
Cc1ncnc2c1ccn2[C@@H]1C[C@H]([C@H](F)c2ccc(F)cc2)[C@@H](O)[C@H]1O | 217 nM
O[C@@H]1[C@H](O)[C@@H](Oc2cccc3c2CNCC3)C[C@H]1n1cc(F)c2c(Cl)ncnc21 | 2 nM
Cc1cn([C@@H]2C[C@H](Oc3ccc(F)c4c3CNCC4)[C@@H](O)[C@H]2O)c2ncnc(Cl)c12 | 1 nM
Nc1ncnc2c1ccn2[C@@H]1C[C@H]([C@@H](O)c2ccc(Cl)c(F)c2)[C@@H](O)[C@H]1O | 572 nM
Cc1ncnc2c1ccn2[C@@H]1CC([C@](C)(O)c2ccc(F)cc2)[C@@H](O)[C@H]1O (some centres not stated) | 17100 nM
Cc1ncnc2c1ccn2C1C[C@H](Oc2cccc3c2CNCC3)[C@@H](O)[C@H]1O (some centres not stated) | 1 nM
CN(c1ccncn1)[C@@H]1C[C@H]([C@@H](O)c2ccc(F)c(F)c2)[C@@H](O)[C@H]1O | 466 nM
CN(c1cc(N)ncn1)[C@@H]1C[C@@H]([C@H](O)c2ccc(F)c(F)c2)[C@@H](O)[C@H]1O | 17000 nM
Cc1ncnc2c1ccn2[C@@H]1C[C@H]([C@@H](CN)c2ccc(F)cc2)[C@@H](O)[C@H]1O | 676 nM
Cc1ncnc2c1ccn2[C@@H]1C[C@H](Oc2ccc(F)cc2[C@@H](C)N)[C@@H](O)[C@H]1O | 2 nM
Cc1cc(N[C@@H]2C[C@H]([C@H](O)c3ccc(F)c(F)c3)[C@@H](O)[C@H]2O)ncn1 | 3580 nM
Cc1cc(N[C@H]2C[C@@H](Oc3ccccc3C#N)[C@H](O)[C@@H]2O)ncn1 | > 200000 nM
Cc1cc(N[C@@H]2C[C@H](Oc3ccccc3C#N)[C@@H](O)[C@H]2O)ncn1 | > 200000 nM
Cc1cc(N[C@@H]2C[C@H]([C@@H](O)c3ccc(F)c(F)c3)[C@@H](O)[C@H]2O)ncn1 | 59500 nM
CO[C@@H]1C[C@H](n2ccc3c(C)ncnc32)[C@H](O)[C@@H]1O | 2120 nM
Cc1ncnc2c1ccn2[C@@H]1C[C@H](Oc2ccc(F)c3c2CNC[C@@H]3C)[C@@H](O)[C@H]1O | 2 nM

Structure (SMILES) | IC50
CN(c1ccncn1)[C@@H]1C[C@@H]([C@H](O)c2ccc(F)c(F)c2)[C@@H](O)[C@H]1O | 15700 nM
Cc1ncnc2c1ccn2[C@@H]1C[C@H]([C@@H](F)c2ccc(F)cc2)[C@@H](O)[C@H]1O | 3 nM
Cc1ncnc(N(C)[C@@H]2C[C@H]([C@@H](O)c3ccc(F)c(F)c3)[C@@H](O)[C@H]2O)n1 | 297 nM
Cc1ncnc2c1ccn2[C@H]1C[C@@H](Oc2ccccc2CN)[C@H](O)[C@@H]1O | 25 nM
Cc1nc(N)nc2c1ccn2[C@@H]1C[C@@H]([C@H](O)c2ccc(F)c(F)c2)[C@@H](O)[C@H]1O | 105 nM
CO[C@H]1C[C@H](n2ccc3c(C)ncnc32)[C@H](O)[C@@H]1O | 5740 nM
Cc1ncnc2c1ccn2[C@@H]1C[C@H]([C@](F)(CN)c2ccc(F)cc2)[C@@H](O)[C@H]1O | 18900 nM
Cc1ncnc2c1ccn2[C@@H]1C[C@H](Oc2ccc(F)c3c2CNC[C@H]3C)[C@@H](O)[C@H]1O | 1 nM
Cc1ncnc2c1ccn2[C@@H]1C[C@H](Oc2ccc(F)cc2[C@H](C)N)[C@@H](O)[C@H]1O | 123 nM
N#Cc1cccc2c(N[C@@H]3C[C@H](C(O)c4ccc(F)c(F)c4)[C@@H](O)[C@H]3O)ncnc12 (some centres not stated) | > 200000 nM
Nc1ncnc2c1ccn2[C@@H]1C[C@@H]([C@H](O)c2ccc(Cl)c(F)c2)[C@@H](O)[C@H]1O | 71 nM
Cc1ncnc(N(C)[C@@H]2C[C@@H]([C@H](O)c3ccc(F)c(F)c3)[C@@H](O)[C@H]2O)n1 | 29500 nM
Nc1ncnc2c1c(F)cn2[C@@H]1C[C@H](Oc2cccc3c2CNCC3)[C@@H](O)[C@H]1O | 8 nM and 28 nM
O[C@@H]1[C@H](O)[C@@H]([C@@H](O)c2ccc(F)c(F)c2)C[C@H]1Nc1ncnc2[nH]ccc12 | 449 nM
CN(c1ncnc(N)n1)[C@@H]1C[C@H]([C@@H](O)c2ccc(F)c(F)c2)[C@@H](O)[C@H]1O | 266 nM
Cc1ncnc2c1ccn2[C@@H]1C[C@@H]([C@H](CN)c2ccc(F)cc2)[C@@H](O)[C@H]1O | 906 nM
Cc1cccc(CC(O)[C@H]2C[C@@H](n3ccc4c(C)ncnc43)[C@H](O)[C@@H]2O)n1 (some centres not stated) | > 200000 nM
COC(=O)c1cc(F)ccc1O[C@H]1C[C@@H](n2ccc3c(C)ncnc32)[C@H](O)[C@@H]1O | 10200 nM
CN(c1cc(N)ncn1)[C@@H]1C[C@H]([C@@H](O)c2ccc(F)c(F)c2)[C@@H](O)[C@H]1O | 879 nM
Cc1cc(N[C@@H]2C[C@H](Oc3ccc(F)cc3C#N)[C@@H](O)[C@H]2O)ncn1 | > 200000 nM
Cc1ncnc2c1ccn2[C@@H]1C[C@H](Oc2cc(C(F)F)c(F)c3c2CNCC3)C(O)=C1O | 1 nM
CN(c1ncnc(N)n1)[C@@H]1C[C@@H]([C@H](O)c2ccc(F)c(F)c2)[C@@H](O)[C@H]1O | 15700 nM
Cc1ncnc2c1ccn2[C@@H]1CC([C@@](C)(O)c2ccc(F)cc2)[C@@H](O)[C@H]1O (some centres not stated) | 64 nM
